Patent US20190175528A1, “INHIBITION OF BIOFILM ORGANISMS” (NovaBiotics Limited, priority 2009, published 2019)

Columns and labels:
[1] = tested on: P. aeruginosa strains (7); experiment: microbe, parasite or virus in culture; type: cell-based, Pseudomonas aeruginosa; details: agent alone; range over strains
Method: (§1) The bacterial inoculum was established by the dilution method from actively-growing cultures in Mueller-Hinton broth, standardized with 0.5 McFarland turbidity standard as described in the CLSI method M26-A.
(§2) To determine the prevention of biofilm formation, both the bacterial inoculum and the antimicrobial agents were added simultaneously to the plates. The plates were incubated at 37° C. for 24 h and the optical density was read at 625 nm on a microtitre plate reader (BioTek Powerwave XS, Winooski, USA). The MIC was obtained as the lowest concentration of antimicrobial showing total inhibition of bacterial growth.
(§3) The FIC corresponds to an interaction coefficient indicating whether the combination of antimicrobial agents is synergistic, additive, antagonist or neutral. The FIC is determined by comparing the activity of an agent in combination (MIC of agent A+agent B) with the activity of the agent alone (MIC of agent A or agent B) as follow (Singh et al., 2000):
(§4) FIC=MICA[combination]/MICA[alone]+MICB[combination]/MICB[alone]
(§5) Additive combinations of two antimicrobial agents are indicated by a FIC index of 1, whereas a FIC index <1 indicates synergistic combinations. Neutral combinations would give a FIC between 1 and 4, a FIC index higher than 4 indicates antagonist effects between the two antimicrobial agents.
(§6) Summary of the activity of the tested antimicrobial agents against the Gram-negative P. aeruginosa strains and the Gram-positive Staphylococcus spp. The number into brackets indicates the maximum number of strains tested. MIC: minimum inhibition concentration; MBEC: minimum biofilm eradication concentration; FIC: fractional inhibitory concentration.

[2] = tested on: Staphylococcus spp (4); experiment: microbe, parasite or virus in culture; type: cell-based; details: agent alone; range over strains
Method: as §1, §2, §3, §4, §5, §6

[3] = tested on: P. aeruginosa strains (7) biofilm cells; type: cell-based, Pseudomonas aeruginosa; details: agent alone
Method: (§7) The FIC was also calculated to assess the interaction of two antimicrobial agents in combination against bacterial biofilms. The same formulae applied, using MBEC instead of MIC.
(§8) A total volume of 100 μl bacterial inoculum in Mueller-Hinton was added to each well of 96-well plates (challenge plates) and the plates were incubated at 37° C. for 24 h on a gyrorotary shaking platform (Grant-bio PS-3D, Shepreth, England) at 24 rpm to allow for biofilm formation.
(§9) The challenge plates were then rinsed once with sterile PBS (lx) and two-fold serial dilutions of antimicrobial agents in Mueller-Hinton were added to the challenge plates. The challenge plates were incubated at 37° C. for 24 h on a gyrorotary shaking platform (Grant-bio PS-3D, Shepreth, England) at 24 rpm.
(§10) The supernatants from each of the challenge plates were transferred into fresh plates and the optical density was measured at 625 nm on a microtitre plate reader (BioTek Powerwave XS, Winooski, USA). The MBEC was obtained by the lowest concentration of antimicrobial showing no bacterial growth.
as §6

[4] = tested on: P. aeruginosa strains (7) persister cells; experiment: Persister cells in biofilms (live/dead staining), summary over strains; type: cell-based, Pseudomonas aeruginosa; details: agent alone
Method: (§11) Following transfer of the supernatant from the challenge plates, the biofilms were rinsed once with sterile PBS (lx) and 100 μl of BacLight live/dead fluorescent staining solution (Invitrogen, Paisley, UK) containing 4 μM SYTO9 and 20 μM propidium iodide (PI) in sterile PBS (lx) were added to the wells of the challenge plates. The plates were incubated at room temperature in the dark for 15 min and the fluorescence was read at 485(ex)/528(em) and 485(ex)/645(em) for SYTO9 and PI fluorescence, respectively on a fluorescence microtitre plate reader (BioTek Synergy HT, Winooski, USA) with the sensitivity set at 50 and bottom optics position was selected. Direct observation of the biofilms with an Axiovert 40 fluorescence microscope (Zeiss, Gottingen, Germany) allowed identifying the presence of live and dead bacteria and pictures of the biofilms were taken at 100 to 400-fold magnification.
(§12) The relative viability of persister cells was determined by the live/dead fluorescence measurements ratio and microscopic observations were used to confirm the presence or absence of live cells.
as §6

[5] = tested on: Staphylococcus spp (4) persister cells; experiment: as above; type: cell-based; details: agent alone; FIG. 8
Method: as §11, §12, §6

[6] = tested on: P. aeruginosa ATCC BAA-47 (PAO1) biofilm cells; experiment: MBEC against 24 h-old biofilm; type: cell-based, Pseudomonas aeruginosa; details: agent alone; FIG. 7
Method: as §7, §8, §9, §10
(§13) The assessment of the activity of NP108 and cysteamine against bacterial biofilms was carried out with 24 h-old biofilms and the activity of both compounds in combination was also determined. The activity of the antimicrobial agents against bacterial biofilms was determined by their activity against the biofilm cells and against the persister cells.

[7] = tested on: S. aureus DSM 11729 biofilm cells; type: cell-based, Staphylococcus aureus; details: agent alone
Method: as §7, §8, §9, §10, §13

[8] = tested on: S. epidermidis 12228 biofilm cells; experiment: MBEC against 24 h-old biofilm; type: cell-based, Staphylococcus epidermidis; details: agent alone
Method: as §8, §9, §10, §13

[9] = tested on: P. aeruginosa ATCC27853 biofilm cells; type: cell-based, Pseudomonas aeruginosa
Method: as §8, §9, §10

[10] = tested on: P. aeruginosa ATCC BAA-47 (PAO1) persister cells; experiment: Relative viability of persister cells (SYTO9/PI live/dead fluorescence, microscopy); type: cell-based, Pseudomonas aeruginosa; details: agent alone; FIG. 6, FIG. 8
Method: as §11, §12
The activity of NP108 and cysteamine against the persister cells was assessed using a fluorescence staining method to determine the relative viability of the cells. The nucleic acid-binding fluorescent molecules used were SYTO9 and PI, which penetrate all bacterial cells (green fluorescence) and membrane-disrupted cells (red fluorescence), respectively.

[11] = tested on: P. aeruginosa ATCC27853 persister cells; experiment: Relative viability of persister cells (SYTO9/PI live/dead fluorescence); type: cell-based, Pseudomonas aeruginosa; details: 1024 μg/ml NP341+3128 μg/ml N-acetylcysteine; FIG. 20b
Method: as §11, §12

[12] = tested on: methicillin-resistant S. aureus (MRSA) DSM 11729 planktonic cells; experiment: Time course activity over a 48-h period against planktonic cells; type: cell-based, Staphylococcus aureus; details: 0.25 mg/ml
From the text: The range of concentrations tested as shown in the legends is in mg/ml.

N=C(N)NCCC[C@@H](N)C(=O)N[C@H](CCCNC(=N)N)C(=O)N[C@H](CCCNC(=N)N)C(=O)N[C@H](CCCNC(=N)N)C(=O)N[C@H](CCCNC(=N)N)C(=O)N[C@H](CCCNC(=N)N)C(=O)N[C@H](CCCNC(=N)N)C(=O)N[C@H](CCCNC(=N)N)C(=O)N[C@H](CCCNC(=N)N)C(=O)N[C@H](CCCNC(=N)N)C(=O)N[C@H](CCCNC(=N)N)C(=O)N[C@H](CCCNC(=N)N)C(=O)N[C@H](CCCNC(=N)N)C(N)=O [NP341, dRdRdRdRdRdRdRdRdRdRdRdRdR-CONH]
MIC, P. aeruginosa strains (7) [1]: 31.25 µg/mL | MIC, Staphylococcus spp (4) [2]: 250 µg/mL | MBEC, P. aeruginosa strains (7) [3]: >5,000 μg/ml | Persisters, active concentration, P. aeruginosa strains (7) [4]: 625 µg/mL | decrease of viability of persister cells of the 3 Staphylococcus species [5]: 25 to 50% | reduction of viability of biofilm cells, P. aeruginosa BAA-47 (PAO1) [6]: 2 to 3 fold | MBEC, S. aureus (MRSA) DSM 11729 biofilm cells [7]: 625 µg/mL | reduction of viability of biofilm cells, MRSA 11729 ([7]; FIG. 7): 2 to 3 fold | MBEC, S. epidermidis 12228 biofilm cells [8]: 625 µg/mL | MBEC alone, P. aeruginosa ATCC27853 ([9]; agent alone, FIG. 21a): more than 2 mg/ml | NP341 needed to reach the MBEC in combination, P. aeruginosa ATCC27853 ([9]; in combination with 3-6 mg/ml of N-acetylcysteine, FIG. 20a): 205 µg/mL | concentration that inhibits the viability of P. aeruginosa BAA-47 (PAO1) persister cells [10]: 625 µg/mL | inhibition of persister cells, P. aeruginosa ATCC27853 [11]: approximately 75% | duration of complete inhibition [12]: 48 h
